Test results: US20260137814A1, “FLUORESCENT COMPOUNDS FOR ACCELERATED CANCER THERANOSTIC” (The Hong Kong University of Science and Technology, priority 2022, published 2026)

Tests used:
[1] = Absorption and emission spectra in solution; format: physicochemical
Source text: Expectedly, the emission spectrum of TBT-2(1P-DPA), and TBT-2(2P-DPA) both ends below 1000 nm, while the emission maximum of TBT-2(TP-DPA) was 1046 nm when upon 808 nm excitation (FIG. 3d). […] The experimental characterization is in consistency with our theoretical hypothesis, which made TBT-2(TP-DPA) ideal candidates as the template of NIR-II theranostic agents.

[2] = Absolute fluorescence quantum yield in the NIR region; format: physicochemical; conditions: in toluene, under 808 nm excitation
Protocol: Under 808 nm excitation, the absolute quantum yield of TBT-2(TP-DPA) in the NIR region was determined to be 10.4% in toluene.

Compound | emission wavelength extended to [1] [nm] | absorption peak ([1]; in THE solution) | emission maximum ([1]; upon 808 nm excitation) [nm] | absolute quantum yield in the NIR region [2] [%] | absorption ended up to ([1]; in THE solution) [nm]
CCCCC(CC)Cn1nc2c(-c3ccc(-c4ccc(N(c5ccc(OC)cc5)c5ccc(OC)cc5)cc4)s3)c3c(c(-c4ccc(-c5ccc(N(c6ccc(OC)cc6)c6ccc(OC)cc6)cc5)s4)c2n1)N=S=N3 (stereo not drawn) [TBT-2(TP-DPA)] | ~1500 | around 800 nm | 1046 | 10.4 | 
CCCCC(CC)Cn1nc2c(-c3ccc(N(c4ccc(OC)cc4)c4ccc(OC)cc4)cc3)c3c(c(-c4ccc(N(c5ccc(OC)cc5)c5ccc(OC)cc5)cc4)c2n1)N=S=N3 (stereo not drawn) [TBT-2(1P-DPA)] |  | 580 nm |  |  | 800
